# Laboratory results published in patent US6670384B2, “Methods of administering epothilone analogs for the treatment of cancer” (Bristol-Myers Squibb Company, priority 2001, dated 2003).
# Where two headings read alike, the source gives them in different places.
# What was measured:
# [1] = system: colon tumors; assay: Anti-tumor response in previously treated cancer patients, colon tumors; assay type: in vivo, human; conditions: metastatic colon cancer patients previously treated with chemotherapy
# Source text: (§1) A total of 24 cancer patients (12 male and 12 female) received compound II by IV administration to evaluate the maximum tolerated dose (MTD), the dose limiting toxicity (DLT), the pharmacokinitics and pharmacodynamics, and to evaluate the anti-tumor activity of compound II. The median age (range) of the patients was 57 (34-74). 5 patients had breast cancer, 5 patients had head and neck cancer, 2 patients had sarcoma, 2 patients had colorectal cancer, 2 patients had UPT cancer, 2 patients had melanoma, 2 patients had cancer of the esophagus, 1 patient had renal cancer, 1 patient had cervical cancer, 1 patient had thyroid cancer, and 1 patient had anal cancer. 21 patients had received prior chemotherapy (18 patients received neurotoxic agents and 18 patients received radiotherapy). The median number of prior chemotherapy lines including adjuvant (range) was 2 (1-3).
# (§2) In a second study a total of 12 cancer patients (5 male and 7 female) were orally administered compound II on day 1 followed by a 30 minute IV infusion of compound II every week starting on day 7 at a dose of 25 mg/m^2 to evaluate neurotoxicity of compound II. The median age (range) of the patients was 51 (30-65). 4 patients had colorectal cancer, 3 patients had breast cancer, 2 patients had melanoma, 1 patient had renal cancer, 1 patient had sarcoma, and 1 patient had ovary cancer. […]
# [2] = Dose escalation study of weekly IV Compound II in cancer patients (MTD, dose limiting toxicity); assay type: in vivo, human; conditions: 30 minute IV infusion every week
# Source text: as §1
# Patients were orally administered compound II on day 1 (for dose levels of 20 mg/m^2 and higher) followed by a 30 minute IV infusion of compound II every week starting on day 7. Patients were administered compound II at doses of 1, 2.5, 5, 10, 20, 25, and 30 mg/m^2.
# [3] = Stability of the drug during dissolution in tertiary butanol/water and lyophilization; assay type: physicochemical; conditions: tertiary butanol/Water for Injection 1:1 at 5 EC, lyophilized at −16 EC 48 hours, dried at 15 EC 48 hours, light protected
# Description: [1S-[1R*,3R*(E),7R*,10S*,11R*,12R*,16S*]]-7,11-Dihydroxy-8,8,10,12,16-pentamethyl-3-[1-methyl-2-(2-methyl-4-thiazolyl)ethenyl]-4-aza-17-oxabicyclo[14.1.0]heptadecane-5,9-dione, 9.86 g, was wetted/partially dissolved with 600 mL of a 9:1 mixture of tertiary butanol and Water for Injection USP which had been pre-cooled to 5 EC. Once the drug powder had become completely wetted, dissolution was completed by the addition of 600 mL of a 1:9 mixture of tertiary butanol and Water for Injection and 766 mL of a 1:1 mixture of tertiary butanol and Water for Injection which likewise had been pre-cooled to 5 EC thereby making the final solution a 1:1 mixture. The dissolution was carried out under protection from light.
# The solution formed above was promptly lyophilized in a Virtis INOTOP lyophilizer at −16 EC under light protectant conditions over a period of 48 hours. The resultant lyophilized product (lyophile) was then further dried at 15 EC under high vacuum for 48 hours. […] The lyophile was packaged under sterile conditions into 30 mL vials, each containing 10 mg of drug and standard excess to allow for vial/needle/syringe loss.
# [4] = Pharmacokinetics of Compound II given orally and intravenously to cancer patients (plasma, LC/MS/MS); assay type: in vivo, human; conditions: for Tmax / Cmax / bioavailability: human, plasma; for bioavailability: read-out: % F (absolute bioavailability)
# Description: Patients with Advanced Malignancies were administered Compound II weekly as a 30-minute infusion (a course=3 intravenous weekly administrations). Patients received doses of 1, 2.5, 5, 10, 20, 25, or 30 mg/m^2. […] The dose of oral Compound II administered on Day 6 matched the dose of IV Compound II administered on day 1. Serial plasma sampling was obtained on day 6 and day 1 of course 1 to assess pharmacokinetics by an LC/MS/MS.
# Samples were analyzed by adding an internal standard to 0.2 mL of plasma sample, precipitating with acetone, and then extracting the supernatant with 1-chlorobutane. The organic layer was removed and evaporated to dryness. The residue was reconstituted and injected into the LC/MS/MS system. Chromatographic separation was achieved, isocratically, on a YMC ODS-AQ column (4.6×50 mm, 3:m) with a mobile phase of acetonitrile:0.01M ammonium acetate, pH 5.0 (65:35). Detection was by negative electrospray tandem mass spectrometry. The standard curve, which ranged from 2 to 500 ng/mL for all analytes and was fitted to a 1/x weighted quadratic regression model.
# The propylene glycol/ethanol mixture was prepared by mixing 80 parts by volume of propylene glycol and 20 parts by volume of ethanol in a suitable container and gently swirling the container until the solution was completely mixed.
# Buffer for use with Compound II was constituted with water for injection (WFI).
# Compound II was prepared for administration to patients by using a suitable syringe to slowly inject 2.5, 5, or 10 mL of the propylene glycol/ethanol mixture into the 20 cc vial containing 25 mg/vial of Compound II, to give concentrations of 10, 5, or 2.5 mg/mL, respectively, depending on the dose to be administered to the patient. The syringe was removed and the vial shaken vigorously for 10 seconds. The vial was placed in a sonication bath and sonicated until the solution became clear. Vials were pooled depending on the dose.
# The bottle was shaken vigorously or sonicated with intermittent shaking until a clear solution was obtained.
# Following oral administration on day 6, 7 mL blood samples was collected into Becton Dickinson Vacutainer tubes with K3EDTA as anticoagulent (lavender-colored top) according to the following schedule (expressed as hours:minutes from the start of the oral administration): predose, 00:15, 00:30, 00:45, 1:00, 1:30, 2:00, 3:00, 4:00, 6:00, 8:00, 24:00, 48:00, and 72:00. Following IV administration on day 1, 7 mL blood samples were collected into Becton Dickinson Vacutainer tubes with K3EDTA as anticoagulent (lavender-colored top) according to the following schedule (expressed as hours:minutes from the start of the IV infusion):predose, 00:15, 00:30 (end-of infusion), 00:45, 1:00, 1:30, 2:00, 3:00, 4:00, 6:00, 8:00, 24:00, 48:00, and 72:00.
# Immediately after blood collection, the Vacutainer tubes were inverted several times to ensure mixing with the anticoagulant and then immediately placed on crushed ice. Within 30 minutes of collection, samples were centrifuged for 5 minutes at approximately 2000×g and 0 to 5 EC. The plasma was then transferred to separate pre-labeled screw-capped polypropylene tubes and stored at −70 EC until bioanalysis. Plasma concentrations of Compound II were analyzed using the LC/MS/MS assay.
# The plasma concentration versus time data were analyzed using non-compartmental methods. The pharmacokinetic parameters determined for Compound II included the maximum observed plasma concentration (Cmax), time to reach Cmax (Tmax), area under the plasma concentration time curve from time zero to the time of last sampling time T(AUC(0-T)).
# A total of 18 patients have received oral Compound II as a solution on day 6 and by IV on day 1.
# [5] = system: breast tumors; assay: Anti-tumor response in previously treated cancer patients, breast tumors; assay type: in vivo, human; conditions: breast cancer patients previously treated with chemotherapy
# Source text: as §1, §2
smiles,measurement,setting,value
"C/C(=C\c1csc(C)n1)C1C[C@@H]2O[C@]2(C)CCC[C@H](C)[C@H](O)[C@@H](C)C(=O)C(C)(C)[C@@H](O)CC(=O)N1 (relative stereo) [Compound II, [1S-[1R*,3R*(E),7R*,10S*,11R*, 12R*,16S*,]]-7,11-Dihydroxy-8,8,10,12,16-pentamethyl-3-[1-methyl-2-(2-methyl-4-thiazolyl)ethenyl]-4-aza-7-oxabicyclo[14.1.0]heptadecane-5,9-dione]",tumor response to treatment,[1],responded
same,weekly dose administered without severe toxicity being observed,[2],up to 30 mg/m^2
same,"degradation of the drug during dissolution, lyophilization and drying",[3],No detectable degradation
same,AUC(0-T),"[4]; 20 mg/m^2, IV, patients N=3, mean",796 H · ng/mL
same,AUC(0-T),"[4]; 20 mg/m^2, oral solution, patients N=3, mean",404 H · ng/mL
same,AUC(0-T),"[4]; 25 mg/m^2, IV, patients N=11, mean",848 H · ng/mL
same,AUC(0-T),"[4]; 25 mg/m^2, oral solution, patients N=11, mean",533 H · ng/mL
same,AUC(0-T),"[4]; 30 mg/m^2, IV, patients N=4, mean",1155 H · ng/mL
same,AUC(0-T),"[4]; 30 mg/m^2, oral solution, patients N=4, mean",708 H · ng/mL
same,Tmax,"[4]; 20 mg/m2, 20 mg/m^2, IV, patients N=3, median",15 min
same,Cmax,"[4]; 20 mg/m2, 20 mg/m^2, oral solution, patients N=3, mean",142 ng/mL
same,Tmax,"[4]; 20 mg/m2, 20 mg/m^2, oral solution, patients N=3, median",60 min
same,Tmax,"[4]; 25 mg/m2, 25 mg/m^2, IV, patients N=11, median",30 min
same,Cmax,"[4]; 25 mg/m2, 25 mg/m^2, oral solution, patients N=11, mean",180 ng/mL
same,Tmax,"[4]; 25 mg/m2, 25 mg/m^2, oral solution, patients N=11, median",30 min
same,Tmax,"[4]; 30 mg/m2, 30 mg/m^2, IV, patients N=4, median",30 min
same,Cmax,"[4]; 30 mg/m2, 30 mg/m^2, oral solution, patients N=4, mean",274 ng/mL
same,Tmax,"[4]; 30 mg/m2, 30 mg/m^2, oral solution, patients N=4, median",30 min
same,Cmax,"[4]; 20 mg/m^2, IV 30-minute infusion, patients N=3, mean",251 ng/mL
same,bioavailability,"[4]; 20 mg/m^2, oral solution vs IV, patients N=3, mean",43.5%
same,Cmax,"[4]; 25 mg/m^2, IV 30-minute infusion, patients N=11, mean",447 ng/mL
same,bioavailability,"[4]; 25 mg/m^2, oral solution vs IV, patients N=11, mean",55.6%
same,Cmax,"[4]; 30 mg/m^2, IV 30-minute infusion, patients N=4, mean",711 ng/mL
same,bioavailability,"[4]; 30 mg/m^2, oral solution vs IV, patients N=4, mean",62.2%
same,tumor response to treatment,[5],responded
